Reference: patent publication US8562586B2, “Devices and systems for local delivery of inotropic agents to the epicardium” (Massachusetts Institute of Technology, priority 2008, dated 2013)

What was measured:
Sprague Dawley rat = assay: Hemodynamic and contractile indices in anesthetized rat, epicardial alginate patch vs IV infusion; format: in vivo; conditions: for systemic vascular resistance: FIG. 5
Protocol: A Sprague Dawley rat was anesthetized with pentobarbital and catheters were placed in the right internal jugular vein and right femoral artery for continuous pressure measurement and IV access. An arteriotomy in the right carotid artery allowed passage of a Millar (Houston, Tex.) conductance pressure-volume catheter across the aortic valve and into the left ventricle. This catheter allows measurement of indices of myocardial contractile function. A tracheotomy was performed and the animal ventilated prior to sternotomy and chest retraction.
A pericardial drug releasing platform was made from a calcium crosslinked alginate disk (6.5 mm diameter) and placed on top of the left ventricle. Dobutamine was then applied to the drug release platform for pericardial inotropic treatments. […]

Hannaford swine = assay: Hemodynamic measurements in anesthetized swine, epicardial patch vs pericardial catheter vs IV; format: in vivo
Protocol: Hannaford swine (15-25 weeks old, 45-60 kg) were fasted overnight but given full access to water. Telazol (2 mg/kg IM at a ratio of zolazepam:tiletamine of 1:1) was given IM for sedation. Anesthesia was induced with inhaled isoflurane 2% prior to tracheal intubation (9.0 cuffed). A 22 gauge peripheral IV was inserted into an ear vein for drug administration and volume resuscitation (Ringer's lactate 4 ml/kg/hr). Anesthesia was maintained during surgical preparation with isoflurane 2% in oxygen. Respiratory rate was be fixed to 10 breaths per minute and the tidal volume adjusted between 6 and 10 ml/kg to maintain expired end-tidal carbon dioxide between 35 and 40 mmHg. Inhaled isoflurane was discontinued after surgical preparation, and balanced total intravenous anesthesia was initiated with pentobarbital (10 mg/kg/hr) and pancuronium (0.5 mcg/kg/hr) prior to experimentation.
Vascular access introducer sheaths (7 FR) were placed in a femoral vein, the right internal jugular vein and both femoral arteries using a Seldinger technique under ultrasound guidance. A balloon tipped pulmonary artery catheter was inserted through the right internal jugular venous sheath and into the pulmonary artery to allow measurement of central venous pressure (CVP), pulmonary artery pressures, and thermodilution cardiac output. Heparin 5000 units was given to keep activated clotting time above 250 seconds. A pig-tail Millar conductance catheter was advanced retrograde across the aortic valve from the right femoral arterial sheath, and allows instantaneous recordings of the pressure and volume within the left ventricle. Following midline sternotomy the pericardium was retracted. Excess Ringer's lactate solution was given to replace blood losses and maintain CVP greater than 8 mm Hg. Continuous hemodynamic measurements were taken including heart rate (HR), mean arterial pressure (MAP), central venous pressure (CVP), contractility (max dP/dt), systemic vascular resistance (SVR), stroke volume (SV), cardiac output (CO) and stroke work (SW).
A pericardial drug releasing platform was constructed from 2 calcium crosslinked alginate disks which were sealed around the edges with GluStitch and formed a bladder for pericardial drug. A catheter was placed into the bladder formed by the two disks and allowed continuous infusion of inotropic drug into the pericardial fluid. This device spread drug over the surface of the heart at a controllable rate of delivery. In another experiment, dobutamine was introduced into the pericardial sac through a catheter without the use of the patch.
In yet another experiment, dobutamine was introduced intravenously.

[1] = intravenous infusion systems; cited from earlier work
[2] = Plasma dobutamine levels in arterial blood samples of swine; format: in vivo; conditions: FIG. 10
Source text: Arterial blood samples were taken for measurement of plasma dobutamine levels.

[3] = Drug levels within the myocardium, tissue core from under the device, swine; format: in vivo; conditions: patch release compared with IV infusion at the same dosage, all tissue depths, FIG. 11
Source text: The heart was arrested with a large potassium IV bolus and removed. A core of tissue from under the device was taken for measurement of drug levels within the myocardium.

[4] = patch delivery, PV loop, FIG. 4
[5] = patch release 1 mcg/kg/min compared with IV infusion at the same dosage, FIG. 3
[6] = patch release compared with intravenous infusion, FIG. 6

CC(CCc1ccc(O)cc1)NCCc1ccc(O)c(O)c1 (centres unmarked) [dobutamine]
systemic vascular resistance (Sprague Dawley rat; intravenous infusion 1 mcg/kg/min): excessively decreases | cardiac work efficiency (Sprague Dawley rat; patch 1 mcg/kg/min compared with IV infusion at the same dosage, FIG. 4): more efficient cardiac work | ventricular stroke volume (Sprague Dawley rat; patch 1 mcg/kg/min compared with IV infusion at the same dosage, pressure volume loops, FIG. 4): greater ventricular stroke volume | LV pressure during ejection (Sprague Dawley rat; [4]): no increase | diastolic filling (Sprague Dawley rat; [4]): minimal change | end-systolic volume (Sprague Dawley rat; [4]): marked reduction | myocardial stroke work (SW) (Sprague Dawley rat; patch delivery, area inside PV loop, FIG. 4): minimal increase | contractility of myocardial tissue (max dP/dt) (Sprague Dawley rat; [5]): greater increase in contractility | duration of the increase in contractility (Sprague Dawley rat; [5]): sustained for a longer period of time | systemic vascular resistance (Sprague Dawley rat; patch release 1 mcg/kg/min): only minimal effect | increase in contractility relative to dose (Sprague Dawley rat; [6]): larger increase in contractility with a smaller dose | potency and effect on contractility (Sprague Dawley rat; [6]): more potent and efficacious | time response of increasing contractility (Hannaford swine; after pericardial application, FIG. 8): very rapid | stroke work per stroke volume (Hannaford swine; patch 0.5 mcg/kg/min compared with IV infusion at the same dosage, FIG. 9): less | myocardial contractility, dose response (Hannaford swine; patch release compared with release via catheter in the pericardial sac, FIG. 7): greater increase | cardiac output (Hannaford swine; patch release, FIG. 8): increased | contractility (Hannaford swine; patch release, FIG. 8): increased | systemic vascular resistance (Hannaford swine; patch release, FIG. 8): without significantly reducing | dosage typically required for therapeutic effect on contractility [1]: at least 2 mcg/kg/min | plasma concentration ([2]; intravenous infusion compared with patch release): substantially higher | plasma drug levels ([2]; pericardial (patch) delivery compared with IV delivery): lower | myocardial dobutamine concentration [3]: orders of magnitude higher

C[C@@H]1CC(=O)NN=C1c1ccc(NN=C(C#N)C#N)cc1 [levosimendan]
dosage typically required for therapeutic effect on contractility [1]: ≥ 0.1 µg/kg/min
